Test results: PubChem BioAssay AID1918991 (Molecular Pharmacology Branch, DTP, NCI, 2023)

Tested on: 186277-243-T-J2-PDC complex spheroid growth
Assay: Anticancer human tumor 186277-243-T-J2-PDC patient-derived colon adenocarcinoma cell line growth inhibition [AhR]
Details: for IC50: curve of first compound; for viability, T/C: stronger effect = lower value
Procedure, shortened: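 Complex tumor spheroids co-cultured with HUVEC and human MSC stroma; AhR antagonists tested in combination with standard-of-care and investigational agents. Top concentration at or near clinical Cmax (else 10 microM), half-log dilutions; growth expressed as percent test/control.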

[1] = second compound 0.1 µM, first compound 0.0316 µM
[2] = second compound 0.1 µM, first compound 0.1 µM
[3] = second compound 0.1 µM, first compound 0.316 µM
[4] = second compound 0.1 µM, first compound 1 µM
[5] = second compound 0.1 µM, first compound 3.16 µM
[6] = second compound 0.1 µM, first compound 10 µM
[7] = second compound 0.316 µM, first compound 0.0316 µM
[8] = second compound 0.316 µM, first compound 0.1 µM
[9] = second compound 0.316 µM, first compound 0.316 µM
[10] = second compound 0.316 µM, first compound 1 µM
[11] = second compound 0.316 µM, first compound 3.16 µM
[12] = second compound 0.316 µM, first compound 10 µM
[13] = second compound 1 µM, first compound 0.0316 µM
[14] = second compound 1 µM, first compound 0.1 µM
[15] = second compound 1 µM, first compound 0.316 µM
[16] = second compound 1 µM, first compound 1 µM
[17] = second compound 1 µM, first compound 3.16 µM
[18] = second compound 1 µM, first compound 10 µM
[19] = second compound 3.16 µM, first compound 0.0316 µM
[20] = second compound 3.16 µM, first compound 0.1 µM
[21] = second compound 3.16 µM, first compound 0.316 µM
[22] = second compound 3.16 µM, first compound 1 µM
[23] = second compound 3.16 µM, first compound 3.16 µM
[24] = second compound 3.16 µM, first compound 10 µM
[25] = second compound 10 µM, first compound 0.0316 µM
[26] = second compound 10 µM, first compound 0.1 µM
[27] = second compound 10 µM, first compound 0.316 µM
[28] = second compound 10 µM, first compound 1 µM
[29] = second compound 10 µM, first compound 3.16 µM
[30] = second compound 10 µM, first compound 10 µM
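Further: spheroids exposed to compounds for seven days before the viability read.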
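Wherever viability, T/C is given: luminescent signal used as a stand-in for viable cell amount; 100% = DMSO vehicle control wells.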

Row | IC50 (second compound 0.1 µM) [µM] | IC50 (second compound 0.316 µM) [µM] | IC50 (second compound 1 µM) [µM] | IC50 (second compound 3.16 µM) [µM] | IC50 (second compound 10 µM) [µM] | SMILES | viability, T/C [1] [%] | viability, T/C [2] [%] | viability, T/C [3] [%] | viability, T/C [4] [%] | viability, T/C [5] [%] | viability, T/C [6] [%] | viability, T/C [7] [%] | viability, T/C [8] [%] | viability, T/C [9] [%] | viability, T/C [10] [%] | viability, T/C [11] [%] | viability, T/C [12] [%] | viability, T/C [13] [%] | viability, T/C [14] [%] | viability, T/C [15] [%] | further results
1 | < 0.0316 | < 0.0316 | < 0.0316 | < 0.0316 | < 0.0316 | Nc1ccn(C2OC(CO)C(O)C2(F)F)c(=O)n1 (stereo not given) + Cc1ccccc1N=Nc1ccc(NC(=O)c2ccnn2C)c(C)c1 | 16.6 | 15.3 | 14.9 | 16.3 | 18.7 | 17.1 | 14.9 | 14.5 | 16.5 | 18 | 17.4 | 17.4 | 16 | 16 | 16.4 | viability, T/C [16]: 17%; viability, T/C [17]: 18.3%; viability, T/C [18]: 19.4%; viability, T/C [19]: 14.6%; viability, T/C [20]: 13%; viability, T/C [21]: 15.7%; viability, T/C [22]: 15.3%; viability, T/C [23]: 17.1%; viability, T/C [24]: 17.1%; viability, T/C [25]: 16%; viability, T/C [26]: 15.9%; viability, T/C [27]: 16.6%; viability, T/C [28]: 17.8%; viability, T/C [29]: 18%; viability, T/C [30]: 18.8%
2 | 2.02 | 1.74 | 1.9 | 1.66 | 1.47 | O=C(C=Cc1cccc(S(=O)(=O)Nc2ccccc2)c1)NO + Cc1ccccc1N=Nc1ccc(NC(=O)c2ccnn2C)c(C)c1 | 114 | 104 | 96.2 | 88.8 | 25.4 | 4.8 | 96.7 | 114 | 101 | 74.7 | 23.2 | 4.82 | 104 | 100 | 108 | viability, T/C [16]: 84.7%; viability, T/C [17]: 22.3%; viability, T/C [18]: 4.07%; viability, T/C [19]: 91.5%; viability, T/C [20]: 114%; viability, T/C [21]: 112%; viability, T/C [22]: 74.5%; viability, T/C [23]: 18.4%; viability, T/C [24]: 3%; viability, T/C [25]: 89.8%; viability, T/C [26]: 97.8%; viability, T/C [27]: 96.5%; viability, T/C [28]: 65%; viability, T/C [29]: 18.8%; viability, T/C [30]: 3.18%
3 | > 10 | > 10 | > 10 | > 10 | > 10 | O=C(c1cc(Cc2n[nH]c(=O)c3ccccc23)ccc1F)N1CCN(C(=O)C2CC2)CC1 + Cc1ccccc1N=Nc1ccc(NC(=O)c2ccnn2C)c(C)c1 | 102 | 95.4 | 95.5 | 101 | 99.2 | 123 | 94 | 111 | 97.5 | 101 | 100 | 127 | 105 | 87.3 | 110 | viability, T/C [16]: 95.1%; viability, T/C [17]: 113%; viability, T/C [18]: 127%; viability, T/C [19]: 109%; viability, T/C [20]: 96.5%; viability, T/C [21]: 104%; viability, T/C [22]: 101%; viability, T/C [23]: 106%; viability, T/C [24]: 111%; viability, T/C [25]: 85.6%; viability, T/C [26]: 86.1%; viability, T/C [27]: 101%; viability, T/C [28]: 93.3%; viability, T/C [29]: 93.6%; viability, T/C [30]: 91.6%
